Earlier results on 1 compound are cited in patent US20170001952A1, “FUMARATE COMPOUNDS, PHARMACEUTICAL COMPOSITIONS THEREOF, AND METHODS OF USE” (priority 2015, published 2017).

On to `COC(=O)/C=C/C(=O)OC` [DMF, dimethylfumarate], for which the aqueous solubility result is “poor aqueous solubility”.
